# Results: patent publication US20240116832A1, “INHIBITORS OF SOIL NITRIFICATION AND PROCESSES TO PREVENT SAME” (Tessenderlo Group NV, priority 2019, published 2024)
# System: soil nitrification: conversion of ammonium-N(NH4+) into nitrate-N(NO3−), Tujunga loamy sand
# Conditions: for nitrification inhibition (slowing the conversion of ammonium-N into nitrate-N), in words: text on Experiments 1 and 2
# From the text: Two soils were used in this experiment, a Tujunga loamy sand (thermic Typic Xeropsamments) collected in Dinuba, California along with a Clarion fine loam (mesic Typic Hapludolls), collected in Boone, Iowa.
# Each soil was collected by hand from the top 15 mm of the soil profile and allowed to air-dry. Both soils were hand screened to remove large clumps and rocks that may have interfered with the experiment. Soil samples were taken before the start of the experiment and analyzed to assess the initial nutrient content and pH of the soil.
# The experiments were made up of numerous individual plastic containers that each represented one (1) replicate of each fertilizer treatment and soil. All experiments were arranged as a completely randomized design consisting of 12-20 fertilizer treatments, two soils, with six replicates.
# To begin the experiment, 200 g of the dried and screened soil was added to a 709 mL sealable plastic container. Distilled water was added to each container to bring the moisture level up to what would be considered optimal field moisture. It was important to determine this for each soil separately to ensure neither soil was too dry or too moist. This volume ranged from 15-25 ml per container with the Clarion soil being the highest. Once the appropriate amount of water was applied to each container, they were thoroughly stirred to ensure uniform mixing and to eliminate any clumps.
# After the soil containers were filled and moistened, the individual liquid fertilizer treatments were prepared in a 100 ml Erlenmeyer flask. All treatments were applied as liquids to ensure uniform mixing and accurate applications. For some of the treatments a 20%-N urea solution was used as the primary nitrogen source. […]
# All fertilizer treatments were made to the soil surface in each container using a micropipette at a nitrogen rate of 134.7 kg ha^−1 calculated on the surface area of each container which equals 125.8 cm^2. […]
# Soil samples were initially taken at one (1) day after treatment (DAT). […] The difference in mass is recorded and used in later calculations. […]
SMILES,"nitrification inhibition (slowing the conversion of ammonium-N into nitrate-N), in words","""nitrate levels"" (nitrite+nitrate levels) in the soil (after 8 weeks)"
O=S([O-])O.[K+] [potassium bisulfite],did not work,–
"N.N.O=S(=O)(O)O [ammonium sulfates, ammonium sulfate]",did not work,–
"NC(N)=O [unprotected urea, Urea]",–,≥ 300 ppm
